Results reported in the METLIN SMRT retention time set (Domingo-Almenara et al. 2019).

Assay: gradient 5% acetonitrile 3 min, to 50% in 2 min, to 85% in 15 min, held 3 min, 100 µL/min
Conditions: column: Zorbax Extend-C18 2.1 x 50 mm; eluents: water / acetonitrile, 0.1% formic acid
How it was run: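 Mixtures of ~100 pure standards were chromatographed on a Zorbax Extend-C18 column (2.1 × 50 mm, 1.8 μm) at 100 μL/min using water and acetonitrile, each with 0.1% formic acid. Detection used a quadrupole time-of-flight mass spectrometer in positive and negative ionization mode, and data collection spanned 3 months. Retention time was obtained from adduct peaks picked computationally and each checked manually.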

RP-LC retention time	SMILES
837 s	Cc1nc(-c2ccc(-c3noc(CNC(=O)c4ccco4)n3)cc2)cs1
713 s	CC1CCN(S(=O)(=O)N2CCCC(C(=O)NC3CCN(Cc4ccccc4)CC3)C2)CC1 (centres undefined)
767 s	CC(C)c1nncn1C1CCN(S(=O)(=O)c2cccc(Cl)c2)CC1
740 s	CC(=O)Nc1nnc(SCc2nnc(-c3ccccc3C)o2)s1
1010 s	Cc1nn2c(CNS(=O)(=O)c3ccc(C(C)C)cc3)c(-c3ccccc3)nc2s1
721 s	O=C(Nc1cccc(Cl)c1)Nc1ncc(CCNc2ncnc3ccsc23)s1
877 s	COc1ccc(NC(=O)N(C)CCc2noc(COc3ccccc3F)n2)c(OC)c1
778 s	COc1ccc(-c2nc3cccnc3n2C2CCN(S(=O)(=O)c3ccccc3)C2)cc1 (centres undefined)
808 s	CCc1ccc(OCCS(=O)(=O)Nc2cc(NC(C)=O)ccc2OC)cc1
1150 s	Cc1ccc(NC(=O)N2CCN(c3nc4ccccc4nc3C(F)(F)F)CC2)cc1F
962 s	O=C(NCc1nc(-c2ccc(N3CCCC3)cc2)no1)c1cccs1
798 s	O=C(Nc1ccc(C(F)(F)F)cc1)N1CCCC(Cn2c(C3CC3)nc3cccnc32)C1 (centres undefined)
640 s	COC(=O)Nc1ccc(S(=O)(=O)N2CCCC(C(=O)O)C2)cc1 (centres undefined)
600 s	Cc1ccc(C(=O)N2CCC(c3nc(C4CC4)n[nH]3)CC2)s1
1140 s	O=C(c1ccc(Cl)cc1)N1CCc2nc(-c3ccc(Cl)cc3)ncc2C1
930 s	Cc1sc2ccn(CC(C)C)c(=O)c2c1C(=O)NCc1ccccc1
853 s	Cc1cc(Cl)ccc1S(=O)(=O)N1CCCC(Cn2cnc3cccnc32)C1 (centres undefined)
1030 s	CCn1c(=O)c(N2CCN(C(=O)Nc3ccc(Br)cc3)CC2)nc2cccnc21
806 s	COCCOCc1nc(C2CCN(S(=O)(=O)c3cc(F)ccc3F)CC2)no1
669 s	CCOC(=O)C1=C(CN2CCN(c3ncccn3)CC2)NC(=O)NC1c1ccc(Cl)cc1 (centres undefined)
853 s	Cc1ccsc1C(=O)N1CCN(c2ccc(=O)n(-c3cccc(Cl)c3)n2)CC1
846 s	CCc1ccc(NC(=O)C2CCN(C(=O)c3ncn4c3COC(c3ccccc3)C4)CC2)cc1 (centres undefined)

RP-LC retention time	SMILES
683 s	O=c1oc2c(O)c(O)ccc2c2c1CCCC2
742 s	CC(=O)N1CCc2cc(C)c(S(=O)(=O)NCc3ccco3)cc21
716 s	CCn1cc(CN2CCC(C(=O)NCc3ccc(OC)cc3OC)CC2)c2cc(OC)ccc21
805 s	CC1=C(c2ccc(C)cc2)S(=O)(=O)N=C1N1CCC(NC(=O)c2ccoc2)CC1
581 s	O=C(CCc1nnc2ccc(N3CCC4(CC3)OCCO4)nn12)N1CCN(c2ccccn2)CC1
922 s	COc1cccc(S(=O)(=O)NCc2ccc(C(=O)Nc3cccc(Cl)c3)cc2)c1
864 s	CCN1C(=O)c2ccccc2Oc2ccc(C(=O)NCCc3ccc(OC)c(OC)c3)cc21
1240 s	CCC(Oc1ccccc1)C(=O)Nc1nc(-c2ccc(Cl)cc2)cs1 (centres undefined)
579 s	Cc1cnc(C2CC2)n1CCNC(=O)c1cccn1C
989 s	CCC(C)NC(=O)CSc1ccc(-n2nccc2-c2ccc(OC)cc2)nn1 (centres undefined)
648 s	Cc1ccc(C)c(S(=O)(=O)N2CCC3(CC2)NCCCN=C3NC2CCCCC2)c1
909 s	Cn1cc(C(=O)NCc2ccc(Cl)cc2)c(S(=O)(=O)N2CCSCC2)n1
641 s	O=c1oc2cc(O)c(O)cc2c2c1CCC2
892 s	CCOc1ccc(CNC(=O)COc2nc(C)nc3oc(C)c(C)c23)cc1
654 s	O=C(Cn1cnc(-c2noc(-c3ccncc3)n2)c1)NCc1ccc(F)cc1
736 s	CN(CC1CCOC1)C(=O)Nc1ccccc1Br (centres undefined)
799 s	O=S(=O)(c1ccc2c(c1)OCCO2)N1CCC[C@H]1c1nc(-c2ccc(F)cc2)n[nH]1
696 s	N#Cc1ccccc1OCC(O)CNCCNC(=O)Nc1ccccc1 (centres undefined)
689 s	O=C(C1CCCC1)N1CCn2c(nnc2-c2ccccc2)C1
829 s	COc1cc(OC)cc(C(=O)Nc2ccc(N3CCN(C4CCCC4)C3=O)nc2)c1
885 s	Cc1c(-c2ccnc(N3CCOCC3)n2)cnc2nc(-c3ccccc3)nn12
910 s	CCCCNC(=O)Cn1c2ccccc2c2ncn(Cc3nc(-c4ccccc4)no3)c(=O)c21

RP-LC retention time	SMILES
735 s	CCC(C(=O)NC1CC1)n1nc(C)c2c(C)n(-c3ccccc3)nc2c1=O (centres undefined)
602 s	COc1cc(NC(=O)COc2cc(C)nc(N3CCCC3)n2)cc(OC)c1OC
894 s	Cc1nn(-c2ccccc2)c(C)c1S(=O)(=O)N1CCC(C(=O)NC(C)(C)C)CC1
578 s	CNC(=O)[C@@H]1CN(C(=O)Cn2c(=O)oc3ccccc32)C[C@H]1c1n[nH]c(C)n1
709 s	O=C(Nc1ccc2c(c1)OCCO2)C1CCCN(c2nnc3c(Cl)cccn23)C1 (centres undefined)
761 s	CCOc1ccc(Cl)cc1S(=O)(=O)N1CCC(C(=O)NCCCOC)CC1
1060 s	CCCn1c(=O)c(C)nc2cc(-c3noc(CN4C(=O)COc5ccc(Cl)cc54)n3)ccc21
983 s	CC(C)OCCCNC(=O)C(=O)Nc1ccc(C(C)C)cc1
995 s	Cc1cc(=O)n(CC(=O)Nc2cccc(C#N)c2)c(-c2ccc(F)cc2)n1
781 s	Cc1cccc(C)c1NC(=O)Cn1c(=O)n(Cc2ccc(F)cc2)c(=O)c2nccnc21
613 s	CCCN(C)C(=O)c1c(C)oc2c1CN(C(=O)COC)CC2
713 s	Cc1noc(C)c1CNC(=O)Cc1ccc(F)cc1
641 s	CCn1c(CCNC(=O)c2cc(F)ccc2F)nc2cccnc21
570 s	COc1ccc(NC(=O)N2CCCN(C3CCN(Cc4ccc(F)cc4)C3=O)CC2)cc1 (centres undefined)
825 s	COc1ccc(Cl)cc1S(=O)(=O)N1CCC(n2cnnc2-c2ccccc2)CC1
1010 s	COC(=O)c1cc(S(=O)(=O)N2CCCC2C(=O)Nc2ccc(Br)c(C)c2)cn1C (centres undefined)
708 s	COc1ccccc1OCCNC(=O)COc1ccc(NC(=O)C2CC2)cn1
670 s	Cc1cc(=O)n(CC(=O)Nc2ccccc2)c(N2CCCCC2)n1
1220 s	CCC1Cn2c(C(=O)NCCc3c[nH]c4ccccc34)cc3c(Cl)ccc(c32)O1 (centres undefined)
1000 s	COc1ccc(-c2noc(Cn3c(=O)n(C(C)C)c(=O)c4ccccc43)n2)cc1OC
692 s	CCOc1ccc(NC(=O)Cn2nc3c4sc(N(C)C)nc4ncn3c2=O)cc1
723 s	COc1cccc(CNC(=O)NCCc2nc3cccnc3n2Cc2ccccc2)c1

RP-LC retention time	SMILES
712 s	O=C(NCC1CC1)c1cn(C2CN(C(=O)CCc3c[nH]c4ccccc34)C2)nn1
816 s	CC(=O)N1CCCc2ccc(NC(=O)Cc3ccc(Cl)cc3)cc21
849 s	Cc1cc(N2CCC(NC(=O)Nc3ccc(F)cc3)C2=O)ccc1F (centres undefined)
795 s	COc1ccc(CNC(=O)c2ccc3c(c2)NC(=O)C2CCCCN32)c(OC)c1 (centres undefined)
738 s	Cc1ccccc1Cn1c(C)c(CNCCc2ccco2)c(C(=O)O)c1C
701 s	O=c1ccnc(Nc2ccc(Cl)cc2)[nH]1
633 s	Cc1ccn2c(NC(=O)c3cccs3)c(-c3ccccc3)nc2c1
708 s	COc1cc(OC)cc(C(=O)Nc2cc(-c3cn4cccnc4n3)ccc2OC)c1
895 s	CCN1C=C(C(=O)OCc2ccccc2F)C(C)=NS1(=O)=O
1130 s	Cc1nc(-n2cccc2)sc1C(=O)NCc1ccc(C(C)C)cc1
533 s	Cc1nc([C@@H]2CN(C(=O)c3cscn3)C[C@H]2C(N)=O)n[nH]1
699 s	CC(=O)N1CCc2cc(N3CC(C(=O)Nc4ccccc4Br)CC3=O)ccc21 (centres undefined)
736 s	OC1(c2ccc(Cl)cc2)CCN(Cc2c[nH]c3ccccc23)CC1
618 s	NC(=O)C1CCN(Cc2nc(Cn3ccn4nc(-c5ccccc5)cc4c3=O)no2)CC1
804 s	O=C(c1cccc2[nH]ccc12)N1CCC2(CC1)N=C(c1ccc(Cl)cc1)NO2
806 s	O=S(=O)(Nc1cc(-c2ccoc2)no1)c1ccc(F)cc1F
941 s	Cc1cccc(N2CCN([C@H]3CS(=O)(=O)C[C@@H]3S(=O)(=O)c3ccc(F)cc3)CC2)c1
624 s	CCCc1cc(N2CCN(C(=O)c3ccsc3)CC2)nc2nnc(CC)n12
688 s	Cc1ccc(CS(=O)(=O)N2CCC(CN3CCCC(C)C3)CC2)cc1 (centres undefined)
628 s	Cc1[nH]c(C(=O)N2CCC(CC(=O)N3CCN(c4ccccn4)CC3)CC2)c(C)c1C(=O)OC(C)C
612 s	CC1(c2noc(C3CCOCC3)n2)CCN(Cc2c(F)cccc2Cl)CC1

SMILES	RP-LC retention time
Cc1ccc(Nc2cc(N3CCC(C(=O)N4CCC5(CC4)OCCO5)CC3)ncn2)cc1	645 s
O=C1CCC2(O)[C@@H]3Cc4ccc(O)c5c4[C@]2(CCN3Cc2ccoc2)C1O5 (some centres undefined)	609 s
